Here are results for 3 molecules from article PMC6471523, “Biological Evaluation and Docking Analysis of Potent BACE1 Inhibitors from Boesenbergia rotunda” (Nutrients, 2019).

One data set has as its system T1, chymotrypsin.
T1 construct: purchased Sigma-Aldrich (St. Louis, MO, USA)
Briefly: Chymotrypsin absorbance inhibition assay. Type of data set: biochemical. Here is the method: (§1) Absorbance assays for trypsin, chymotrypsin, and elastase were estimated using N-benzoyl-ʟ-Arg-pNA, N-benzoyl-ʟ-Tyr-pNA, and N-succinyl-Ala-Ala-Ala-pNA as substrates, respectively. Enzyme, Tris-HCl buffer (0.05 M, in 0.02 M CaCl2, pH 8.2), and tested samples were incubated for 10 min at 25 °C then added to the substrate for 30 min at 37 °C. The absorbance was recorded at 410 nm. The inhibition ratio was obtained using the following equation:Inhibition (%) = {[1 − (A − B)]/control} × 100 where A was the absorbance of control (enzyme, assay buffer, and substrate) after 60 min of incubation, and B was the absorbance of the tested sample (assay buffer and sample solution) after 60 min of incubation.

On the set-up of data set [1]: method as in PMID 29066742. The note with it: 10 mg/kg, 30 weeks; cited from earlier work.
Data set [2] deals with T2, BACE1 (Homo sapiens, UniProt P56817).
T2 construct: purchased Invitrogen (Pan Vera, Madison, WI, USA)
T2 sequence (P56817 46-501): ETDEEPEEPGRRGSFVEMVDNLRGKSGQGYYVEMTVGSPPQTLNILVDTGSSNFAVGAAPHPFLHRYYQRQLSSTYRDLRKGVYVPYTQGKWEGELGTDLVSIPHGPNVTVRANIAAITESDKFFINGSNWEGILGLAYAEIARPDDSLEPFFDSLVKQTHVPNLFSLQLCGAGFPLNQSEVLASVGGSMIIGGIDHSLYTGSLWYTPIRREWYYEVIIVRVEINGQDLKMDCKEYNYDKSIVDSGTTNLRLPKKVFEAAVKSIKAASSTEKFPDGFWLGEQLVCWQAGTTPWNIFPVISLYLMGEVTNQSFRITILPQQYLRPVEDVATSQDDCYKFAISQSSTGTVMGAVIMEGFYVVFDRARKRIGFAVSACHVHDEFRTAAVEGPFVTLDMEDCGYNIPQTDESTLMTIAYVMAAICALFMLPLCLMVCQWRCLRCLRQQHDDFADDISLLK
Kind of data set: In vitro BACE1 enzyme inhibitory assay (fluorescence). Type of data set: biochemical. Particulars: for IC50: 60 min, 25 °C, pH 4.5, mean ± SD of three experiments, read-out: IC50 (mean ± SD) against BACE1.
Description: Enzyme assays for BACE1, TACE, chymotrypsin, trypsin, and elastase were carried out according to previously described methods [27]. Briefly, reaction mixtures containing human recombinant BACE1 (1.0 U/mL), a specific substrate (Rh-[sequence]-Quencher in 50 mM ammonium bicarbonate), and samples dissolved in an assay buffer (50 mM sodium acetate, pH 4.5) were incubated for 60 min at 25 °C in well plates. […] The inhibition ratio was obtained using the following equation:Inhibition (%) = [1 − (S − S0)/(C − C0)] × 100 where C was the fluorescence of control (enzyme, assay buffer, and substrate) after 60 min of incubation, C0 was the fluorescence of control at time 0, S was the fluorescence of tested samples (enzyme, sample solution, and substrate) after 60 min of incubation, and S0 was the fluorescence of the tested samples at time 0.

Data set [3] in a line: Physicochemical properties for BBB permeability prediction. Particulars: inferred from MW, PSA and clog P. From the text:
However, few BACE1 inhibitors have been marketed to treat AD due to the difficulty in developing therapeutic agents that can efficiently cross the BBB and reach appropriate concentrations in the cerebral parenchyma, and, moreover, can do so without side effects. Recently, QSAR study approaches have been used to generate predictive models for BBB permeability. […] Cardamonin has a MW of 270.28, a PSA value calculated as 66.76, and a clog P of 4.54, obtained by determining the partition coefficient between n-octanol and water.

Data set [4] addresses T2, BACE1. Kind of data set: BACE1 inhibition kinetics (Dixon and Lineweaver–Burk plots). Type of data set: biochemical. The note with it: for Inhibition Mode: Dixon and Lineweaver–Burk plots; for Ki: Dixon plot. Here is the method:
The dissociation constant (Ki) was obtained by Dixon plot and maximum reaction velocity (Vmax) and Michaelis–Menten constant (Km) values were determined by Lineweaver–Burk plot using SigmaPlot™ version 12.3 (Systat Software, Inc., San Jose, CA, USA).
The type of inhibition and kinetic analysis was determined using a Michaelis–Menten curve, Dixon plot, and Lineweaver–Burk plot (Figure 2). The three lines of the Dixon plots intersected on the x-axis of the same plot (Figure 2b,e,h). […] This pattern indicated non-competitive inhibitory activity against BACE1, thereby interacting with locations other than the active binding site for these compounds. For noncompetitive inhibition of enzymes, the Ki value of inhibitor is essentially the same numerical value as the IC50 [29].

The subject of a further data set is T3, human recombinant TACE.
T3 construct: purchased R&D Systems (Minneapolis, MN, USA)
Briefly: TACE (α-secretase) enzyme inhibitory assay. It is filed as biochemical. Here is the method:
A human recombinant TACE (0.1 ppm in 25 mM Tris buffer), the substrate (APP peptide […] using EDANS/DABCYL), and samples were dissolved in an assay buffer, which were then combined and incubated for 60 min in the dark at 25 °C. The increase in fluorescence intensity produced by substrate hydrolysis was measured by using a microplate reader with excitation and emission wavelengths of 320 and 405 nm, respectively.

The test system of a further data set is trypsin. Kind of data set: Trypsin absorbance inhibition assay. Type of data set: biochemical. Here is the method:
as §1

Details of data set [5]: method as in PMID 28271112. The note with it: calculated; in Å2 (unit assumed); cited from earlier work.
The test system of another data set is HIV-1 protease. Details: method as in earlier work. Particulars: cited from earlier work.
The next data set concerns T4, elastase.
T4 construct: purchased Sigma-Aldrich (St. Louis, MO, USA)
Kind of data set: Elastase absorbance inhibition assay. It is filed as biochemical. Here is the method: as §1

Data set [6] deals with rat model of global cerebral ischemia-reperfusion. The note with it: oral, 10 mg/kg, 7 days; cited from earlier work.
Data set [7] relates to APP/PS1 transgenic mouse model. Particulars: 40 mg/kg, 3-month period; cited from earlier work.
The next data set has as its system Wister rats. The note with it: 100 mg/kg, 7 days; cited from earlier work.
The subject of another data set is BBB. The note with it: in vitro study; cited from earlier work.
Data set [8] has as its system intracerebroventricular Aβ25–35-injected mice. Particulars: oral, 20 mg/kg, 8 days; cited from earlier work.

≈ marks a conversion by molar mass, not a printed value. Bounds are passed on as bounds.

Turning to `COc1cc(O)cc(O)c1C(=O)/C=C/c1ccccc1` [Cardamonin, 2′,4′-dihydroxy-6′-methoxychalcone], the “Inhibitory activity (%) Chymotrypsin” value in the data set on chymotrypsin (sample 50 μM) is 6.20 ± 0.41%; in the data set with chymotrypsin (sample 100 μM) it was 4.23 ± 0.55%. Moreover, the “Toxicity after chronic oral administration” value in data set [1] is reported as “did not elicit any apparent toxicity”. The IC50 at BACE1 [2] came out at 4.35 ± 0.38 µM. Also, the “BACE1 IC50 relative to resveratrol” value on BACE1 [2] (comparison of IC50 values) is given as “three-fold higher”. Further, the “BACE1 inhibition relative to pinocembrin and pinostrobin” value at BACE1 [2] (comparison of IC50 values) is reported as “six-fold more effective”. Besides, in data set [3], the “Predicted BBB crossing” value was “predicted to cross the BBB”. Further, the “Inhibition Mode” value on BACE1 [4] is “Noncompetitive”. The molecule further returned a Ki at BACE1 [4] of 5.1 µM. The “Inhibitory activity (%) TACE” value in the data set with human recombinant TACE (sample 50 μM) was 1.38 ± 0.36%; in the data set on human recombinant TACE (sample 100 μM), 2.69 ± 1.44%. For the same molecule, the figures for the “Inhibitory activity (%) Trypsin” value in the data set on trypsin (sample 50 μM) and in the data set with trypsin (sample 100 μM) were 1.13 ± 0.18% and 3.74 ± 0.53%, respectively. Further, in data set [5], the “polar surface area (PSA)” value was 66.76. In addition, the “IC50 HIV-1 protease activity” value in the data set with HIV-1 protease is 31.0 µg/mL (≈ 115 µM). The “Inhibitory activity (%) Elastase” value with elastase (sample 50 μM) is given as 2.29 ± 0.41%; in the data set with elastase (sample 100 μM), 1.41 ± 0.19%.
On to `O=C1CC(c2ccccc2)Oc2cc(O)cc(O)c21` (centres unmarked) [Pinocembrin, 5,7-dihydroxyflavanone], for which the “Effect on hippocampal inflammation, oxidative stress and apoptosis” value in [6] is “suppressed hippocampal inflammation, oxidative stress, and apoptosis”. Moreover, the entries for the “Inhibitory activity (%) Chymotrypsin” value in the data set with chymotrypsin (sample 10 μM) and in the data set on chymotrypsin (sample 100 μM) were 7.18 ± 1.87% and 8.61 ± 1.09%, respectively. Moreover, the “Effect on cognitive deficits and neurovascular unit” value in data set [7] was “attenuated cognitive deficits and protected the neurovascular unit”. In addition, on BACE1 [2], the IC50 came to 27 ± 2.12 µM. In addition, the “Inhibition Mode” value at BACE1 [4] is “Noncompetitive”. Further, the Ki at BACE1 [4] came to 29.3 µM. In addition, the “Toxicity or mutagenic effects after oral administration” value with Wister rats is listed as “did not induce any toxicity or mutagenic effects”. Besides, the “Inhibitory activity (%) TACE” value in the data set with human recombinant TACE (sample 10 μM) came out at 5.15 ± 0.98%; with human recombinant TACE (sample 100 μM) it was 6.95 ± 1.52%. For the same molecule, the “BBB crossing in vitro” value in the data set on BBB is given as “could cross the BBB by passive transport partly through P-glycoprotein”. The “Inhibitory activity (%) Trypsin” value in the data set on trypsin (sample 10 μM) stood at 4.35 ± 0.26%; with trypsin (sample 100 μM), 4.96 ± 0.27%. Besides, the “Effect on cognitive impairment” value in data set [8] is “significantly improved cognitive impairment”. Further, in the data set with HIV-1 protease, the “IC50 HIV-1 protease activity” value is greater than 100 µg/mL. The “Inhibitory activity (%) Elastase” value amounted to 3.24 ± 0.19% in the data set on elastase (sample 10 μM) and 2.56 ± 0.08% in the data set with elastase (sample 100 μM).
On to `COc1cc(O)c2c(c1)OC(c1ccccc1)CC2=O` (centres unmarked) [Pinostrobin, 5-hydroxy-7methoxyflavanone], for which the “Inhibitory activity (%) Chymotrypsin” value is listed as 3.29 ± 0.25% in the data set with chymotrypsin (sample 10 μM) and 5.41 ± 0.49% with chymotrypsin (sample 100 μM). For the same molecule, the half-inhibitory concentration (IC50) at BACE1 [2] was 28.4 ± 1.96 µM. The “Inhibition Mode” value on BACE1 [4] is reported as “Noncompetitive”. The molecule further showed an inhibition constant (Ki) on BACE1 [4] of 30.9 µM. In addition, in the data set on Wister rats, the “Toxicity or mutagenic effects after oral administration” value is recorded as “did not induce any toxicity or mutagenic effects”. The “Inhibitory activity (%) TACE” value was 8.53 ± 1.05% in the data set with human recombinant TACE (sample 10 μM) and 9.19 ± 1.20% in the data set with human recombinant TACE (sample 100 μM). Further, the “Inhibitory activity (%) Trypsin” value worked out at 3.19 ± 0.16% in the data set with trypsin (sample 10 μM) and 1.52 ± 0.05% in the data set with trypsin (sample 100 μM). For the same molecule, the “IC50 HIV-1 protease activity” value with HIV-1 protease is greater than 100 µg/mL. Also, the “Inhibitory activity (%) Elastase” value in the data set with elastase (sample 10 μM) stood at 5.21 ± 0.41%; in the data set on elastase (sample 100 μM), 2.63 ± 0.37%.
